Test results as given in PubChem BioAssay (NCI).
Where “and” joins values, the source holds several entries; their conditions need not be identical. Equal values may be shown once.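 Where inhibition never reached the appropriate level, the endpoint shown equals the highest concentration tested. Otherwise, values were interpolated linearly from a five-concentration, 48-hour dose response in 96-well plates. GI50: concentration for 50% inhibition of growth. TGI denotes the concentration required for complete inhibition of growth.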

Tests used:
Assay in all cases: NCI tumour cell line growth inhibition, 48 h
RXF 393 renal = tested on: RXF 393 renal
NCI-H23 lung = tested on: NCI-H23 lung
NCI-H460 lung = tested on: NCI-H460 lung
UACC-62 melanoma = tested on: UACC-62 melanoma
OVCAR-4 ovarian = tested on: OVCAR-4 ovarian
RPMI-8226 leukemia = tested on: RPMI-8226 leukemia
SF-268 CNS = tested on: SF-268 CNS
HCC-2998 colon = tested on: HCC-2998 colon
SK-MEL-5 melanoma = tested on: SK-MEL-5 melanoma
OVCAR-5 ovarian = tested on: OVCAR-5 ovarian
ACHN renal = tested on: ACHN renal

Row | Structure (SMILES) | TGI (RXF 393 renal) | TGI (NCI-H23 lung) | TGI (NCI-H460 lung) | TGI (UACC-62 melanoma) | TGI (OVCAR-4 ovarian) | TGI (RPMI-8226 leukemia) | TGI (SF-268 CNS) | TGI (HCC-2998 colon) | TGI (SK-MEL-5 melanoma) | TGI (OVCAR-5 ovarian) | TGI (ACHN renal) | GI50 (RXF 393 renal) | GI50 (NCI-H460 lung) | GI50 (OVCAR-4 ovarian) | GI50 (SF-268 CNS) | GI50 (SK-MEL-5 melanoma) | GI50 (NCI-H23 lung) | GI50 (ACHN renal) | GI50 (HCC-2998 colon) | GI50 (OVCAR-5 ovarian)
1 | Nc1ncnc2c1ncn2C1OC(COP(=O)(O)O)C(O)C1O (stereo unspecified) | > 50 µM | > 50 µM | > 50 µM | > 50 µM | > 50 µM | > 50 µM | > 50 µM | > 50 µM | > 50 µM | > 50 µM | – | – | – | – | – | – | – | – | – | –
2 | COc1cc2c(cc1OC)-c1cc3ccccc3c[n+]1CC2 | > 100 µM | > 100 µM | > 100 µM | > 100 µM | > 100 µM | > 100 µM | > 100 µM | > 100 µM | > 100 µM | > 100 µM | > 100 µM | – | – | – | – | – | – | – | – | –
3 | Cc1ccccc1C(=O)c1c(O)c2c(c(O)c1Br)CCCC2 | 33.7 µM | 58.4 µM | 56.6 µM | 29 µM | 28.9 µM | 57.5 µM | 29 µM | 34 µM | 35.4 µM | 34.6 µM | 31.9 µM | – | – | – | – | – | – | – | – | –
4 | O=[N+]([O-])c1nc(-c2ccccn2)[nH]c1[N+](=O)[O-] | > 100 µM | > 100 µM | > 100 µM | 85.7 µM | > 100 µM | > 100 µM | > 100 µM | > 100 µM | > 100 µM | > 100 µM | > 100 µM | – | – | – | – | – | – | – | – | –
5 | CCOc1ccc2nc(-c3ccc(O)cc3)sc2c1 | > 100 µM | > 100 µM | > 100 µM | > 100 µM | – | 2.63 µM | 91.3 µM | – | > 100 µM | > 100 µM | > 100 µM | – | – | – | – | – | – | – | – | –
6 | C/C=C/[C@H]1O[C@@](O)([C@@H](C)[C@H](O)[C@H](C)[C@H]2OC(=O)/C(OC)=C/C(C)=C/[C@@H](C)[C@@H](O)[C@@H](CC)[C@@H](O)[C@H](C)C/C(C)=C/C=C/[C@@H]2OC)C[C@H](OC2CC(O)C(O)C(C)O2)[C@@H]1C (stereo partly specified) | 23.2 µM | 17.5 µM | 4.81 µM | 10.3 µM | 32 µM | < 0.0075 µM | 25.6 µM | 11.8 µM | 0.0828 µM | 15.1 µM | 12.8 µM | – | – | – | – | – | – | – | – | –
7 | O=C(O)c1ccccc1NC(c1ccccc1)c1ccc2cccnc2c1O (stereo unspecified) | 27.7 µM | > 53 µM | 63.4 µM | > 50 µM | 34.6 µM | 16.9 µM | > 43.5 µM | > 100 µM | 24.5 µM | 58 µM | > 100 µM | – | – | – | – | – | – | – | – | –
8 | N/C(=N\N=C/c1ccccc1O)NO | 25.9 µM | 53.9 µM | > 43.7 µM | 38.4 µM | 31.1 µM | 27 µM | 90.5 µM | 25.6 µM | > 100 µM | > 100 µM | – | – | – | – | – | – | – | – | – | –
9 | O=C1OC(c2ccccc2)=N/C1=C\c1cccnc1 | > 100 µM | > 100 µM | > 100 µM | > 100 µM | > 100 µM | > 100 µM | > 100 µM | > 100 µM | > 100 µM | > 100 µM | > 100 µM | – | – | – | – | – | – | – | – | –
10 | O=C(O)c1cc2ccccc2c(N=Nc2ccccc2)c1O | 72.5 µM | 56.1 µM | – | 35.2 µM | > 100 µM | > 100 µM | > 100 µM | – | 28.2 µM | > 100 µM | 69.5 µM | – | – | – | – | – | – | – | – | –
11 | CC(=O)OC1C(C)OC(Oc2c(C)c3c4c(c2O)[C@@H](C)CC[C@@H]4[C@@H](C)C[C@H]3C=C(C)C)C(O)C1O (stereo partly specified) | 20.9 µM | – | > 100 µM | – | > 100 µM | – | 55.3 µM | – | 5.39 µM | – | – | 4.11 µM | 3.57 µM | 3.2 µM | 16 µM | 2.49 µM | – | – | – | –
12 | CC[C@]1(O)C[C@H]2CN(CCc3c([nH]c4ccccc34)[C@@](C(=O)OC)(c3cc4c(cc3OC)N(C=O)[C@H]3[C@@](O)(C(=O)OC)[C@H](OC(C)=O)[C@]5(CC)C=CCN6CC[C@]43[C@@H]65)C2)C1 | 17.5 µM and 74.1 µM | – | 0.775 µM and 2.35 µM | 38.4 µM and 75.1 µM | 132 µM and 135 µM | – | 8.13 µM and 31.2 µM and 79.2 µM | – | – | – | – | – | < 0.001 µM | – | – | – | < 0.001 µM | 0.00846 µM | – | –
13 | CCS(=O)(=O)N1CCC(C(C)n2c(C)c(C(=O)NCc3c(OC)cc(C)[nH]c3=O)c3ccccc32)CC1 (stereo unspecified) | > 100 µM | > 100 µM | > 100 µM | – | > 100 µM | – | > 100 µM | > 100 µM | > 100 µM | > 100 µM | > 100 µM | > 100 µM | > 100 µM | > 100 µM | > 100 µM | > 100 µM | > 100 µM | > 100 µM | > 100 µM | > 100 µM
14 | COC1=C2CC(C)CC(OC)C(O)C(C)/C=C(\C)C(OC(N)=O)C(OC)/C=C\C=C(/C)C(=O)NC(=C(C=NC(C)(C)C)C1=O)C2=O (stereo unspecified) | 4.89 µM | 5.17 µM | 18.4 µM | 17.6 µM | 14.4 µM | 13.5 µM | 37.4 µM | 16.6 µM | 15.4 µM | 74.1 µM | – | – | – | – | – | – | – | – | – | –
15 | NC(=O)c1nnc2ccc(F)cc2c1N | – | > 100 µM | > 100 µM | > 100 µM | > 100 µM | > 100 µM | > 100 µM | > 100 µM | > 100 µM | > 100 µM | > 100 µM | – | – | – | – | – | – | – | – | –
16 | C/C(CC/C(C)=N/O)=N\O | > 100 µM | > 100 µM | > 100 µM | > 100 µM | > 100 µM | > 100 µM | > 100 µM | > 100 µM | > 100 µM | > 100 µM | > 100 µM | – | – | – | – | – | – | – | – | –
